Biological target: BoNT/A holotoxin (Clostridium botulinum, UniProt P0DPI0)
Sequence (P0DPI0 2-448 limits assumed): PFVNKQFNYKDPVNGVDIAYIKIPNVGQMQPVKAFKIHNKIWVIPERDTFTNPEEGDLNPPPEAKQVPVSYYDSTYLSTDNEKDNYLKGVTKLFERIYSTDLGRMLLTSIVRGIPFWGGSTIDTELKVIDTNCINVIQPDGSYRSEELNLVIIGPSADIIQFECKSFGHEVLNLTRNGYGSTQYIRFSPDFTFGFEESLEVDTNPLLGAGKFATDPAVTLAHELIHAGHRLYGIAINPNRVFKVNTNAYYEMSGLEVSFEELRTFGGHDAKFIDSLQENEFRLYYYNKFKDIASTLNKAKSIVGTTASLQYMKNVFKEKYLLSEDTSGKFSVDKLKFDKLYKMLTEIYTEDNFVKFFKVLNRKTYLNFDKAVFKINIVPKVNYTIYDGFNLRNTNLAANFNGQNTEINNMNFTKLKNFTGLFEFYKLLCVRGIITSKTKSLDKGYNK

What does the source list for “NH2-Dab(DNP)-R-[Lys(N3)-T-Dab-Pra]-L-Lys(DBCO-STP)-Tz4-G-Aib-L-[Pra-NYRWL-Lys(N3)] [Inh-2-STP]”?
latest time after exposure with partial rescue: ≤ 3 h; rescue from internalized BoNT (SNAP-25 cleavage): partial rescue

From patent US11723944B2 (priority 2015, dated 2023)
